Measurements from patent US20260374781A1, “NOVEL TRIHETEROCYCLIC COMPOUNDS” (IDENCE CO., LTD., priority 2022, published 2026).

Tests used:
[1] = test system: AsPC-1 cells; assay: Cell Proliferation Assay, AsPC-1 (CellTiter-Glo 2.0 viability); format: cell-based; details: Homo sapiens, ASPC1, 72 h, AsPC-1 pancreatic cancer (KRAS G12D mutation)
Experimental: (§1) Test Example 3: Cell Proliferation Assay
(§2) Cell viability testing of test compounds in AsPC-1 pancreatic cancer (KRAS G12D mutation) or SW480 colon cancer (KRAS G12V mutation) cells for 72 hours
(§3) The reference compound Staurosporine was purchased from Sigma-Aldrich (Saint Louis, MI), and CellTiter-Glo® 2.0 Luminescent cell viability assay reagent (cat #G9243) was purchased from Promega (Madison, WI). AsPC-1 and SW480 cell lines were purchased from American Type Culture Collection (Manassas, VA). AsPC-1 cells were cultured with RPMI-1640 (ATCC, cat #30-2001) and SW480 cells were cultured with DMEM (ATCC cat #30-2002).
(§4) A medium supplemented with 10% FBS (Sigma-Aldrich, cat #F2442) and 100 µg/mL of penicillin-streptomycin (Sigma-Aldrich, cat #P4333) was used. Cells were cultured at 37 °C in a humidified atmosphere of 5% CO2 and 95% air.
(§5) • 1. The test compound and reference compound, Staurosporine were dissolved in DMSO solution to prepare 20 mM (test compound) and 10 mM (control compound, Staurosporine) in the Source Plate and diluted with DMSO to 3-fold and 10 doses. • 2. From the Source Plate, 10 volumes of 125 nL test compound or 25 nL reference compound were dispensed into wells of a 384-well culture plate (VWR, cat #82050-076) using Echo 655. • 3. 25 μL of culture medium including 2000 AsPC-1 or SW480 cells was dispensed into each 384-well cell culture plate. • 4. Cells were cultured with the compound for 72 hours at 37 °C and 5% CO2 conditions. • 5. 25 μL of CellTiter-Glo 2.0 reagent was added to each well of the plate. • 6. The contents were mixed for 2 minutes on an orbital shaker, and the luminescence signal was stabilized at room temperature for 15 minutes. • 7. Luminescence signals were measured with an Envision 2104 Multilabel Reader (PerkinElmer, Santa Clara, CA), and the number of surviving cells was determined through quantification of ATP present in each culture. • 8. IC50 values were calculated based on the Sigmoidal dose-response equation in the GraphPad Prism 4 program.

[2] = test system: SW480 cells; assay: Cell Proliferation Assay, SW480 (CellTiter-Glo 2.0 viability); format: cell-based; details: Homo sapiens; SW480 colon cancer (KRAS G12V mutation); 72 hours
Experimental: as §1, §2, §3, §4, §5

| Compound | IC50 [1] [nM] | IC50 [2] [nM] |
| --- | --- | --- |
| CCc1c(F)ccc2cc(O)cc(-c3nc4c5c(nc(OC[C@@]67CCCN6C[C@H](OC)C7)nc5c3F)N(C(C)c3cccnc3N)CCO4)c12 (stereo partly drawn) [Example 17, 4-(10-(1-(2-aminopyridin-3-yl)ethyl)-4-fluoro-2-(((2R,7aS)-2-methoxytetrahydro-1H-pyrrolizin-7a(5H)-yl)methoxy)-9,10-dihydro-8H-7-oxa-1,3,6,10-tetraazacyclohepta[de]naphthalen-5-yl)-5-ethyl-6-fluoronaphthalen-2-ol] | < 1000 | < 1000 |
| CC(c1cccnc1N)N1CCOc2c(Cl)c(-c3ccc(F)c4sc(N)c(C#N)c34)c(F)c3nc(OC[C@@]45CCCN4C[C@H](F)C5)nc1c23 (stereo partly drawn) [Example 29a, (4R)-2-amino-4-(4-(1-(2-aminopyridin-3-yl)ethyl)-8-chloro-10-fluoro-2-(((2R,7aS)-2-fluorotetrahydro-1H-pyrrolizin-7a(5H)-yl)methoxy)-5,6-dihydro-4H-[1,4]oxazepino[5,6,7-de]quinazolin-9-yl)-7-fluorobenzo[b]thiophene-3-carbonitrile] | < 1000 | < 1000 |
| CCc1c(F)ccc2cc(O)cc(-c3nc4c5c(nc(OC[C@@H]6CC[C@H]7COCCN76)nc5c3F)N(C(C)c3cccnc3N)CCO4)c12 (stereo partly drawn) [Example 25, 4-(10-(1-(2-aminopyridin-3-yl)ethyl)-4-fluoro-2-(((6S,8aS)-hexahydro-1H-pyrrolo[2,1-c][1,4]oxazin-6-yl)methoxy)-9,10-dihydro-8H-7-oxa-1,3,6,10-tetraazacyclohepta[de]naphthalen-5-yl)-5-ethyl-6-fluoronaphthalen-2-ol] | 1000 to 10000 | < 1000 |
| C#Cc1c(F)ccc2cc(O)cc(-c3nc4c5c(nc(OC[C@@]67CCCN6C[C@H](F)C7)nc5c3F)N(C(C)c3ccccc3N)CCO4)c12 (stereo partly drawn) [Example 20, 4-(10-(1-(2-aminophenyl)ethyl)-4-fluoro-2-(((2R,7aS)-2-fluorotetrahydro-1H-pyrrolizin-7a(5H)-yl)methoxy)-9,10-dihydro-8H-7-oxa-1,3,6,10-tetraazacyclohepta[de]naphthalen-5-yl)-5-ethynyl-6-fluoronaphthalen-2-ol] | – | < 1000 |
| CCc1c(F)ccc2cc(O)cc(-c3nc4c5c(nc(OC[C@@]67CCCN6C[C@H](F)C7)nc5c3F)N(C(C)c3cc(C)cnc3N)CCO4)c12 (stereo partly drawn) [Example 23, 4-(10-(1-(2-amino-5-methylpyridin-3-yl)ethyl)-4-fluoro-2-(((2R,7aS)-2-fluorotetrahydro-1H-pyrrolizin-7a(5H)-yl)methoxy)-9,10-dihydro-8H-7-oxa-1,3,6,10-tetraazacyclohepta[de]naphthalen-5-yl)-5-ethyl-6-fluoronaphthalen-2-ol] | 1000 to 10000 | < 1000 |
| CCc1c(F)ccc2cc(O)cc(-c3nc4c5c(nc(OCC6(C#N)CCOCC6)nc5c3F)N(C(C)c3cccnc3N)CCO4)c12 (stereo not drawn) [Example 24, 4-(((10-(1-(2-aminopyridin-3-yl)ethyl)-5-(8-ethyl-7-fluoro-3-hydroxynaphthalen-1-yl)-4-fluoro-9,10-dihydro-8H-7-oxa-1,3,6,10-tetraazacyclohepta[de]naphthalen-2-yl)oxy)methyl)tetrahydro-2H-pyran-4-carbonitrile] | > 10000 | 1000 to 10000 |
| CCc1c(F)ccc2cc(O)cc(-c3nc4c5c(nc(OC[C@@]67CCCN6C[C@H](F)C7)nc5c3F)N(C)CCO4)c12 [Example 28, 5-ethyl-6-fluoro-4-(4-fluoro-2-(((2R,7aS)-2-fluorotetrahydro-1H-pyrrolizin-7a(5H)-yl)methoxy)-10-methyl-9,10-dihydro-8H-7-oxa-1,3,6,10-tetraazacyclohepta[de]naphthalen-5-yl)naphthalen-2-ol] | > 10000 | – |

Other lines, results leading:

| IC50 [1] [nM] | IC50 [2] [nM] | Compound |
| --- | --- | --- |
| 1000 to 10000 | < 1000 | C#Cc1c(F)ccc2cc(O)cc(-c3nc4c5c(nc(OCC6C[C@@H](F)CN6C)nc5c3F)N(C(C)c3cccnc3N)CCO4)c12 (stereo partly drawn) [Example 18, 4-(10-(1-(2-aminopyridin-3-yl)ethyl)-4-fluoro-2-(((4R)-4-fluoro-1-methylpyrrolidin-2-yl)methoxy)-9,10-dihydro-8H-7-oxa-1,3,6,10-tetraazacyclohepta[de]naphthalen-5-yl)-5-ethynyl-6-fluoronaphthalen-2-ol] |
| 1000 to 10000 | < 1000 | C#Cc1c(F)ccc2cc(O)cc(-c3nc4c5c(nc(OCC6(CN7CCOCC7)CC6)nc5c3F)N(C(C)c3cccnc3N)CCO4)c12 (stereo not drawn) [Example 12, 4-(10-(1-(2-aminopyridin-3-yl)ethyl)-4-fluoro-2-((1-(morpholinomethyl)cyclopropyl)methoxy)-9,10-dihydro-8H-7-oxa-1,3,6,10-tetraazacyclohepta[de]naphthalen-5-yl)-5-ethynyl-6-fluoronaphthalen-2-ol] |
| 1000 to 10000 | < 1000 | CCc1c(F)ccc2cc(O)cc(-c3nc4c5c(nc(OCC6C[C@@H](F)CN6C)nc5c3F)N(C(C)c3cccnc3N)CCO4)c12 (stereo partly drawn) [Example 22, 4-(10-(1-(2-aminopyridin-3-yl)ethyl)-4-fluoro-2-(((4R)-4-fluoro-1-methylpyrrolidin-2-yl)methoxy)-9,10-dihydro-8H-7-oxa-1,3,6,10-tetraazacyclohepta[de]naphthalen-5-yl)-5-ethyl-6-fluoronaphthalen-2-ol] |
| > 10000 | – | C#Cc1c(F)ccc2cc(O)cc(-c3nc4c5c(nc(OCC6CC(F)(F)CN6C)nc5c3F)N(C(C)c3cccnc3N)C[C@H](C)O4)c12 (stereo partly drawn) [Example 7, 4-((8S)-10-(1-(2-aminopyridin-3-yl)ethyl)-2-((4,4-difluoro-1-methylpyrrolidin-2-yl)methoxy)-4-fluoro-8-methyl-9,10-dihydro-8H-7-oxa-1,3,6,10-tetraazacyclohepta[de]naphthalen-5-yl)-5-ethynyl-6-fluoronaphthalen-2-ol] |
| < 1000 | < 1000 | C#Cc1c(F)ccc2cc(O)cc(-c3nc4c5c(nc(OC[C@@]67CCCN6C[C@H](F)C7)nc5c3F)N([C@H](C)c3cccnc3N)CCO4)c12 [Example 13a, 4-(10-((R)-1-(2-aminopyridin-3-yl)ethyl)-4-fluoro-2-(((2R,7aS)-2-fluorotetrahydro-1H-pyrrolizin-7a(5H)-yl)methoxy)-9,10-dihydro-8H-7-oxa-1,3,6,10-tetraazacyclohepta[de]naphthalen-5-yl)-5-ethynyl-6-fluoronaphthalen-2-ol] |
| < 1000 | < 1000 | CCc1c(F)ccc2cc(O)cc(-c3nc4c5c(nc(OC[C@@]67CCCN6C[C@H](F)C7)nc5c3F)N([C@H](C)c3cccnc3N)CCO4)c12 [Example 14a, 4-(10-((R)-1-(2-aminopyridin-3-yl)ethyl)-4-fluoro-2-(((2R,7aS)-2-fluorotetrahydro-1H-pyrrolizin-7a(5H)-yl)methoxy)-9,10-dihydro-8H-7-oxa-1,3,6,10-tetraazacyclohepta[de]naphthalen-5-yl)-5-ethyl-6-fluoronaphthalen-2-ol] |
| > 10000 | – | C#Cc1c(F)ccc2cc(O)cc(-c3nc4c5c(nc(OC[C@@]67CCCN6C[C@H](F)C7)nc5c3F)N([C@@H](C)c3cccnc3N)C[C@H](C)O4)c12 [Example 6b, 4-((S)-10-((S)-1-(2-aminopyridin-3-yl)ethyl)-4-fluoro-2-(((2R,7aS)-2-fluorotetrahydro-1H-pyrrolizin-7a(5H)-yl)methoxy)-8-methyl-9,10-dihydro-8H-7-oxa-1,3,6,10-tetraazacyclohepta[de]naphthalen-5-yl)-5-ethynyl-6-fluoronaphthalen-2-ol] |
| 1000 to 10000 | 1000 to 10000 | C#Cc1c(F)ccc2cc(O)cc(-c3nc4c5c(nc(OC[C@@]67CCCN6C[C@H](F)C7)nc5c3F)N([C@H](C)c3cccnc3N)C[C@H](C)O4)c12 [Example 6a, 4-((S)-10-((R)-1-(2-aminopyridin-3-yl)ethyl)-4-fluoro-2-(((2R,7aS)-2-fluorotetrahydro-1H-pyrrolizin-7a(5H)-yl)methoxy)-8-methyl-9,10-dihydro-8H-7-oxa-1,3,6,10-tetraazacyclohepta[de]naphthalen-5-yl)-5-ethynyl-6-fluoronaphthalen-2-ol] |
| 1000 to 10000 | – | C#Cc1c(F)ccc2cc(O)cc(-c3nc4c5c(nc(OCC67COC(C6)C7)nc5c3F)N(C(C)c3cccnc3N)C[C@H](C)O4)c12 (stereo partly drawn) [Example 9, 4-((8S)-2-((2-oxabicyclo[2.1.1]hexan-4-yl)methoxy)-10-(1-(2-aminopyridin-3-yl)ethyl)-4-fluoro-8-methyl-9,10-dihydro-8H-7-oxa-1,3,6,10-tetraazacyclohepta[de]naphthalen-5-yl)-5-ethynyl-6-fluoronaphthalen-2-ol] |
